15 compounds from patent US8119805B2, “Substituted disulfonamide compounds” (Gruenenthal GmbH, priority 2008, dated 2012) can be followed below.

Test [1] addresses T1, B1R receptor of the rat (rB1R) (Rattus norvegicus, UniProt P97583).
T1 construct: expressed in transfected cells; host or cells: CHO K1 cells
T1 sequence (P97583 1-337): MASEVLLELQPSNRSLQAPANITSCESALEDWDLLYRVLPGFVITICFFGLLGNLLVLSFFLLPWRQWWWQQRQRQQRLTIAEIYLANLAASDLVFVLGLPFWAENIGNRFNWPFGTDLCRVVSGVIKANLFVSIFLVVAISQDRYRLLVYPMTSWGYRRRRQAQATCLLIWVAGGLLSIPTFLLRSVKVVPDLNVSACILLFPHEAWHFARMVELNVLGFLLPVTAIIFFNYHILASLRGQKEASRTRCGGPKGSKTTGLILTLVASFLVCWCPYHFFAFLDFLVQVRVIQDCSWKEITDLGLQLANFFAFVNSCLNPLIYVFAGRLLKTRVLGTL
Kind of test: Functional investigation on the bradykinin 1 receptor (B1R), FLIPR Ca2+ assay, rB1R cells. The settings on record: test substance 10 μM; CHO K1 cells transfected with rat B1R gene; Fluo-4 Ca2+ signal; agonist Des-Arg9-bradykinin at EC80; % of maximum achievable inhibition; read-out: B1R antagonism, rat [10 μM] % inhibition. It is filed as cell-based. As to the method: (§1) The agonistic or antagonistic action of substances on the bradykinin 1 receptor (B1R) of the human and rat species can be quantified with ectopically expressing cell lines (CHO K1 cells) and with the aid of a Ca^2+-sensitive dyestuff (Fluo-4) in a fluorescent imaging plate reader (FLIPR). The value in % activation is based on the Ca^2+ signal after addition of Lys-Des-[…]-bradykinin (0.5 nM) or Des-[…]-bradykinin (100 nM). Antagonists lead to a suppression of the Ca^2+inflow after addition of the agonist. % inhibition compared with the maximum achievable inhibition is stated. The agonistic or antagonistic action of substances on the bradykinin 1 receptor (B1R) of the human and rat species can be determined with the following assay. In accordance with this assay, the Ca^2+ inflow through the channel is quantified with the aid of a Ca^2+-sensitive dyestuff (type Fluo-4, Molecular Probes Europe BV, Leiden, Holland) in a fluorescent imaging plate reader (FLIPR, Molecular Devices, Sunnyvale, USA). Chinese hamster ovary cells (CHO K1 cells) transfected stably with the human B1R gene (hB1R cells) or the B1R gene of the rat (rB1R cells) are used. For functional studies, these cells are plated out on black 96-well plates with a clear base (BD Biosciences, Heidelberg, Germany or Greiner, Frickenhausen, Germany) in a density of 20,000-35,000 cells/well. The cells are left overnight at 37° C. and 5% CO2 in culture medium (hB1R cells: Nutrient Mixture Ham's F12, Gibco Invitrogen GmbH, Karlsruhe, Germany or DMEM, Sigma-Aldrich, Taufkirchen, Germany; rB1R cells: D-MEM/F12, Gibco Invitrogen GmbH, Karlsruhe, Germany) with 10 vol. % FBS (foetal bovine serum, Gibco Invitrogen GmbH, Karlsruhe, Germany or PAN Biotech GmbH, Aidenbach, Germany). On the following day, the cells are loaded for 60 min at 37° C. with 2.13 μM Fluo-4 (Molecular Probes Europe BV, Leiden Holland) in HBSS buffer (Hank's buffered saline solution, Gibco Invitrogen GmbH, Karlsruhe, Germany) with 2.5 mM probenecid (Sigma-Aldrich, Taufkirchen, Germany) and 10 mM HEPES (Sigma-Aldrich, Taufkirchen, Germany). The plates are then washed 2× with HBSS buffer, and HBSS buffer which additionally contains 0.1% BSA (bovine serum albumin; Sigma-Aldrich, Taufkirchen, Germany), 5.6 mM glucose and 0.05% gelatine (Merck KGaA, Darmstadt, Germany) is added. After a further incubation of 20 minutes at room temperature, the plates are inserted into the FLIPR for the Ca^2+ measurement. Alternatively, the plates are washed with buffer A (15 mM HEPES, 80 mM NaCl, 5 mM KCl, 1.2 mM CaCl2, 0.7 mM MgSO4, 2 g/l glucose, 2.5 mM probenecid), buffer A is added and the plates are loaded with 2.5 μM Fluo-4 and 0.025% Pluronic F127 (Sigma-Aldrich, Taufkirchen, Germany). Thereafter, the cells are washed 2× with buffer A and incubated for 30 minutes at room temperature with buffer A, which additionally contains 0.05% BSA and 0.05% gelatine, and thereafter inserted into the FLIPR for the Ca^2+ measurement. The Ca^2+-dependent fluorescence is measured here before and after addition of substances (λex=488 nm, λem=540 nm). Quantification is by measurement of the highest fluorescence intensity (FC, fluorescence counts) over time. The FLIPR protocol consists of 2 additions of substance. Test substances (10 μM) are first pipetted on to the cells and the Ca^2+ inflow is compared with the control (hB1R: Lys-Des-[…]-bradykinin>=50 nM; rB1R: Des-[…]-bradykinin 10 μM). This gives the result in % activation based on the Ca^2+ signal after addition of Lys-Des-[…]-bradykinin (>=50 nM) or Des-[…]-bradykinin (10 μM). After incubation for 10-20 minutes, Lys-Des-[…]-bradykinin (hB1R) or Des-[…]-bradykinin (rB1R) at the EC80 concentration is applied and the inflow of Ca^2+ is likewise determined. Antagonists lead to a suppression of the Ca^2+ inflow. The percent inhibition compared to the maximum achievable inhibition is calculated. In order to determine the IC50 value, the substances are added in various concentrations. […]

In test [2] the target is T2, human B1R receptor (hB1R) (Homo sapiens, UniProt P46663).
T2 construct: expressed in transfected cells; host or cells: CHO K1 cells
T2 sequence (P46663 1-353): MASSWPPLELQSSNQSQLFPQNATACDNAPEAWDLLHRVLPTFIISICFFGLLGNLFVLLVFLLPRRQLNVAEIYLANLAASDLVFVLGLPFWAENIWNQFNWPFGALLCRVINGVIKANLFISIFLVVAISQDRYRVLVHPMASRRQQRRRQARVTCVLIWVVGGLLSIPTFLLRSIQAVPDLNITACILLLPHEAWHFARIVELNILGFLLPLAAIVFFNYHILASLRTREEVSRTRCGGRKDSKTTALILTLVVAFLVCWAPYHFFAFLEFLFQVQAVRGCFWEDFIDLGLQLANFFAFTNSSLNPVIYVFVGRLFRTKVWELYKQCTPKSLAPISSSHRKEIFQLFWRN
Put plainly: Functional investigation on the bradykinin 1 receptor (B1R), FLIPR Ca2+ assay, hB1R cells. The note with it: test substance 10 μM; CHO K1 cells transfected with human B1R gene; Fluo-4 Ca2+ signal; agonist Lys-Des-Arg9-bradykinin at EC80; % of maximum achievable inhibition; read-out: B1R antagonism, human [10 μM] % inhibition. It is filed as cell-based. The procedure:
as §1

Where a name gives a salt, the structure may show the parent alone.

With `CN1CCC(N2CCN(S(=O)(=O)CCCCC3CCCN3S(=O)(=O)c3c(Cl)cc(C(F)(F)F)cc3Cl)CC2)CC1` (stereo not drawn) [Example 9, 1-(4-(1-(2,6-Dichloro-4-(trifluoromethyl)phenylsulfonyl)pyrrolidin-2-yl)butylsulfonyl)-4-(1-methylpiperidin-4-yl)piperazine], the values for the inhibition at 10 µM in test [1] and in test [2] were 30% and 58%, respectively.

As for `Cc1cc(C)c(S(=O)(=O)N2CCC[C@@H]2CCCS(=O)(=O)N2CCN(C3CCN(C)CC3)CC2)c(C)c1` [Example 41, (R)-1-(3-(1-(Mesitylsulfonyl)pyrrolidin-2-yl)propylsulfonyl)-4-(1-methylpiperidin-4-yl)piperazine dihydrochloride], the inhibition at 10 µM is 7% in test [1] and 50% in test [2].

With `COc1cc(C)c(S(=O)(=O)N2CCCC2CCCCS(=O)(=O)N2CCN(C3CCN(C)CC3)CC2)c(C)c1C` (stereo not drawn) [Example 7, 1-(4-(1-(4-Methoxy-2,3,6-trimethylphenylsulfonyl)pyrrolidin-2-yl)butylsulfonyl)-4-(1-methylpiperidin-4-yl)piperazine], the figures for the inhibition at 10 µM in test [1] and in test [2] were 58% and 38%, respectively.

For `Cc1cc(C)c(S(=O)(=O)N2CCCC2CCCCS(=O)(=O)N2CCN(C3CCN(C)CC3)CC2)c(C)c1` (stereo not drawn) [Example 42, 1-(4-(1-(Mesitylsulfonyl)pyrrolidin-2-yl)butylsulfonyl)-4-(1-methylpiperidin-4-yl)piperazine dihydrochloride], the results for the inhibition at 10 µM in test [1] and in test [2] were 26% and 50%, respectively.

As for `O=S(=O)(CCC[C@H]1CCCN1S(=O)(=O)c1ccc2ccccc2c1)N1CCN(c2ccncc2)CC1` [Example 2, (R)-1-(3-(1-(Naphthalen-2-ylsulfonyl)pyrrolidin-2-yl)propylsulfonyl)-4-(pyridin-4-yl)piperazine hydrochloride], the inhibition at 10 µM is 84% in test [1] and 102% in test [2].

Consider `CN1CCC(N2CCN(S(=O)(=O)CCC[C@@H]3CCCN3S(=O)(=O)c3cccc4ccccc34)CC2)CC1` [Example 30, (S)-1-(1-Methylpiperidin-4-yl)-4-(3-(1-(naphthalen-1-ylsulfonyl)pyrrolidin-2-yl)propylsulfonyl)piperazine], for which the inhibition at 10 µM in test [1] came to 48%; in test [2], 56%.

With `O=S(=O)(CCC[C@@H]1CCCN1S(=O)(=O)c1ccc(Cl)c2ccccc12)N1CCC2(CCN(c3ccncc3)CC2)CC1` [Example 79, 3-(3-((S)-1-(4-Chloronaphthalen-1-ylsulfonyl)pyrrolidin-2-yl)propylsulfonyl)-9-(pyridin-4-yl)-3,9-diazaspiro[5.5]undecane], the values for the inhibition at 10 µM in test [1] and in test [2] were 96% and 77%, respectively.

`Cc1cc(C)c(S(=O)(=O)N2CCCC(CCCS(=O)(=O)N3CCC(CCN4CCCC4)CC3)C2)c(C)c1` (stereo not drawn) [Example 11, 1-(Mesitylsulfonyl)-3-(3-(4-(2-(pyrrolidin-1-yl)ethyl)piperidin-1-ylsulfonyl)propyl)piperidine hydrochloride]: the inhibition at 10 µM in test [1] turned out to be 26%; in test [2], 65%.

On to `O=S(=O)(CCC[C@@H]1CCCN1S(=O)(=O)c1ccc(C(F)(F)F)cc1Cl)N1CCC(Oc2ccncc2)CC1` [Example 71, (S)-4-(1-(3-(1-(2-Chloro-4-(trifluoromethyl)phenylsulfonyl)pyrrolidin-2-yl)propylsulfonyl)piperidin-4-yloxy)pyridine], for which the values for the inhibition at 10 µM in test [1] and in test [2] were 39% and 30%, respectively.

As for `COc1cc(C)c(S(=O)(=O)N2CCCC(CCS(=O)(=O)N3CCC(CCN4CCCC4)CC3)C2)c(C)c1C` (stereo not drawn) [Example 39, 1-(4-Methoxy-2,3,6-trimethylphenylsulfonyl)-3-(2-(4-(2-(pyrrolidin-1-yl)ethyl)piperidin-1-ylsulfonyl)ethyl)piperidine hydrochloride], the inhibition at 10 µM came to 27% in test [1] and 44% in test [2].

In the case of `COc1cc(C)c(S(=O)(=O)N2CCC[C@H]2CCCS(=O)(=O)N2CCC3(CCN(c4ccncc4)CC3)C2)c(C)c1` [Example 85, (S)-2-(3-(1-(4-Methoxy-2,6-dimethylphenylsulfonyl)pyrrolidin-2-yl)propylsulfonyl)-8-(pyridin-4-yl)-2,8-diazaspiro[4.5]decane], the inhibition at 10 µM came out at 101% in test [1] and 99% in test [2].

Consider `O=S(=O)(CCC[C@@H]1CCCN1S(=O)(=O)c1cccc(Cl)c1Cl)N1CCC(Oc2ccncc2)CC1` [Example 52, (S)-4-(1-(3-(1-(2,3-Dichlorophenylsulfonyl)pyrrolidin-2-yl)propylsulfonyl)piperidin-4-yloxy)pyridine], for which the inhibition at 10 µM in test [1] is 87%; in test [2] it was 71%.

Consider `O=S(=O)(CCC[C@@H]1CCCN1S(=O)(=O)c1ccc(F)c2ccccc12)N1CCC2(CCN(c3ccncc3)CC2)CC1` [Example 78, 3-(3-((S)-1-(4-Fluoronaphthalen-1-ylsulfonyl)pyrrolidin-2-yl)propylsulfonyl)-9-(pyridin-4-yl)-3,9-diazaspiro[5.5]undecane], for which the inhibition at 10 µM in test [1] was 93%; in test [2] it was 91%.

For `O=S(=O)(CCC[C@@H]1CCCN1S(=O)(=O)c1ccccc1C(F)(F)F)N1CCC(Oc2ccncc2)CC1` [Example 48, (S)-4-(1-(3-(1-(2-(Trifluoromethyl)phenylsulfonyl)pyrrolidin-2-yl)propylsulfonyl)piperidin-4-yloxy)pyridine], the inhibition at 10 µM in test [1] came to 75%; in test [2], 81%.

Consider `COc1cc(C)c(S(=O)(=O)N2C[C@@H](F)C[C@H]2CCCS(=O)(=O)N2CCC(Oc3ccncc3)CC2)c(C)c1` [Example 36, 4-(1-(3-((2R,4S)-4-Fluoro-1-(4-methoxy-2,6-dimethylphenylsulfonyl)pyrrolidin-2-yl)propylsulfonyl)piperidin-4-yloxy)pyridine], for which the inhibition at 10 µM is 89% in test [1] and 95% in test [2].

As usually defined, the inhibition is the drop in the measured response relative to a control, in per cent.
